Measured values: patent US8232059B2, “Method of identifying A. baumannii with OXA-131-like drug resistance in diabetic patients” (priority 2010, dated 2012)
Values after ≈ are worked out from the molar mass of the structure shown.

System: A. baumannii isolates
Assay: MICs (minimum inhibitory concentrations) for susceptibility to known antibiotics, British Society for Antimicrobial Chemotherapy guidelines
Type: cell-based, Acinetobacter baumannii
Settings: 20 clinical isolates from diabetic patients; for MIC: Acinetobacter baumannii
From the text: All twenty isolates were further tested for MICs (minimum inhibitory concentrations) for susceptibility to several known antibiotics using the British Society for Antimicrobial Chemotherapy guidelines.

CC1(C)S[C@@H]2[C@H](NC(=O)[C@H](N)c3ccccc3)C(=O)N2[C@H]1C(=O)O [Ampicillin]
% resistance: 100%
No. of resistant isolates: 20
susceptibility/resistance of the isolates in words: highly resistant

O=C(N[C@H](CO)[C@H](O)c1ccc([N+](=O)[O-])cc1)C(Cl)Cl [Chloramphenicol]
% resistance: 100%
No. of resistant isolates: 20
susceptibility/resistance of the isolates in words: highly resistant
MIC: > 128 µg/mL

C[C@@H](O)[C@H]1C(=O)N2C(C(=O)O)=C(S[C@@H]3CN[C@H](C(=O)Nc4cccc(C(=O)O)c4)C3)[C@H](C)[C@H]12 [Ertapenem]
% resistance: 100%
No. of resistant isolates: 20
susceptibility/resistance of the isolates in words: highly resistant
MIC: 4 to 64 µg/mL (≈ 8.41 to 135 µM)

C[C@@H](O)[C@H]1C(=O)N2C(C(=O)O)=C(SCCN=CN)C[C@H]12 [Imipenem]
% resistance: 0%
No. of resistant isolates: 0
MIC: 0.25 to 2 µg/mL (≈ 0.835 to 6.68 µM)

C[C@@H](O)[C@H]1C(=O)N2C(C(=O)O)=C(S[C@@H]3CN[C@H](C(=O)N(C)C)C3)[C@H](C)[C@H]12 [Meropenem]
% resistance: 20%
No. of resistant isolates: 4
susceptibility/resistance of the isolates in words: all but four isolates (which had low-level resistance) were susceptible
MIC: 4 to 8 µg/mL (≈ 10.4 to 20.9 µM)

CCn1cc(C(=O)O)c(=O)c2ccc(C)nc21 [Nalidixic Acid]
% resistance: 75%
No. of resistant isolates: 15
susceptibility/resistance of the isolates in words: majority was also resistant

CC1COc2c(N3CCN(C)CC3)c(F)cc3c(=O)c(C(=O)O)cn1c23 (stereo not shown) [Ofloxacin]
% resistance: 70%
No. of resistant isolates: 14
MIC: 1 to 32 µg/mL (≈ 2.77 to 88.6 µM)

Cc1onc(-c2ccccc2)c1C(=O)N[C@@H]1C(=O)N2[C@@H]1SC(C)(C)[C@@H]2C(=O)O [Oxacillin]
% resistance: 100%
No. of resistant isolates: 20
susceptibility/resistance of the isolates in words: highly resistant
MIC: > 128 µg/mL

CO[C@H]1/C=C/O[C@@]2(C)Oc3c(C)c(O)c4c(O)c(c(/C=N/N5CCN(C)CC5)c(O)c4c3C2=O)NC(=O)/C(C)=C\C=C\[C@H](C)[C@H](O)[C@@H](C)[C@@H](O)[C@@H](C)[C@H](OC(C)=O)[C@@H]1C [Rifampicin]
% resistance: 80%
No. of resistant isolates: 16
MIC: 4 to 32 µg/mL (≈ 4.86 to 38.9 µM)

CC1(C)[C@H](C(=O)O)N2C(=O)C[C@H]2S1(=O)=O [Sulbactam]
% resistance: 100%
No. of resistant isolates: 20
susceptibility/resistance of the isolates in words: highly resistant

CN(C)[C@@H]1C(O)=C(C(N)=O)C(=O)[C@@]2(O)C(O)=C3C(=O)c4c(O)cccc4[C@@](C)(O)[C@H]3C[C@@H]12 [Tetracycline]
% resistance: 100%
No. of resistant isolates: 20

Colistin
% resistance: 0%
MIC range: 0.25 to 0.5 µg/mL
No. of resistant isolates: 0
susceptibility/resistance of the isolates in words: susceptible

Gentamicin
% resistance: 20%
No. of resistant isolates: 4
susceptibility/resistance of the isolates in words: majority was also resistant
